# Measurements: US20160331662A1, “Compositions that Inhibit and Prevent the Formation of Dental Caries and Methods of Using the Same” (priority 2014, published 2016)
# Tests used:
# [1] = biological target: SspB of S. gordonii (Streptococcus gordonii, UniProt A8AUS1); settings: FAM-labelled peptide
# [2] = tested on: adhesion of AgI/II of S. mutans to iSRCR1; experiment: Adherence/inhibition SPR: AgI/II fragments on immobilized iSRCR1; assay type: binding; settings: 0.005 mM peptide; 2 μM protein
# Description: (§1) Carbohydrates Galβ1-3-GalNac and Mannose (identified from glycan profile analysis) at different concentrations (0.010, 0.050, 0.1, 0.5 and 1 mM) were incubated with 2 μM of each FL, A3VP1 and C123 of AgI/II and SspB and the interaction with immobilized iSRCR1 and iSRCR123 with running buffer containing 20 mM HEPES, 150 mM NaCl and 2.5 mM CaCl2, pH 7.4 at 25° C. and with flow rate of 20 μl/min was analyzed. Direct adherence of these carbohydrates alone served as the control and all calculations were carried out using the BIAevaluation software. Using the same protocol above at varying concentrations the effect of SRCRP2 peptide on the adherence inhibition was assessed.
# [3] = biological target: T1, iSRCR123 (Homo sapiens, UniProt Q9UGM3); experiment: SPR binding of analytes to immobilized iSRCR123 (CM5 chip, 1:1 Langmuir); settings: substance alone over CM5 chip
# T1 construct: multiple SRCR domains have better adherence capability compared to that of a single SRCR domain; made in house; host or cells: Drosophila expression system
# Description: (§2) Real time binding analyses of the SRCR domains with AgI/II fragments were carried out using the BIAcore 2000 system. […] Self association of iSRCR1 or iSRCR123 (at 2 μM) were also determined in a similar manner as described above. Finally to determine the effect of calcium SPR analysis was carried out by dialyzing the analytes and ligands in binding buffer devoid of CaCl2.
# (§3) In addition, the SRCR holding two distinct surfaces compounded the elucidation of individual kinetics, and presently there are no modeling protocols available to determine the individual affinities for such a system, therefore for simplicity we have utilized a single site 1:1 Langmuir model. All experiments were carried out in triplicates and the kinetics of the association (KA) and dissociation (KD) rate constants were deduced using the 1:1 Langmuir Kinetic model on the BIA-Evaluation software. The concentration (C in μM) of analyte (FL^AgI/II or FL^SspB at 2 μM) that adhered to the immobilized ligand (iSRCR1, iSRCR123) within the flow cell was calculated using the formula C=(RU/MW)×(1/V), where RU is resonance unit (1 RU=1 pg of bound protein), MW is molecular weight of analyte and V is volume of flow cell (1.2×10^−10 L).
# [4] = biological target: T2, adhesion of SspB of S. gordonii to iSRCR1 (Streptococcus gordonii, UniProt A8AUS1); assay type: binding; settings: 0.005 mM peptide; 2 μM protein
# T2 construct: made in house; host or cells: pET23d vector
# Description: as §1
# [5] = biological target: T3, iSRCR1 (Homo sapiens, UniProt Q9UGM3); experiment: SPR binding of analytes to immobilized iSRCR1 (CM5 chip, 1:1 Langmuir); settings: substance alone over CM5 chip
# T3 construct: strongly proves that a single SRCR domain contains the adherence sites for AgI/II and SspB; made in house; host or cells: Drosophila expression system
# Description: as §2, §3
# [6] = tested on: adhesion of AgI/II of S. mutans to iSRCR123; experiment: Adherence/inhibition SPR: AgI/II fragments on immobilized iSRCR123; assay type: binding; settings: 0.005 mM peptide; 2 μM protein
# Description: as §1
# [7] = tested on: adhesion of SspB of S. gordonii to iSRCR123; experiment: Adherence/inhibition SPR: SspB fragments on immobilized iSRCR123; assay type: binding; settings: 0.005 mM peptide; 2 μM protein
# Description: as §1
# [8] = tested on: S. gordonii DL1; experiment: Aggregation assay (OD700 over 60 min); assay type: cell-based
# Description: (§4) Aggregation assays were performed as described earlier with slight modifications. Briefly, S. mutans UA159 and S. gordonii DL1 cells were grown in TSY broth media overnight at 37° C. in the presence of 5% CO2. The bacteria were centrifuged at 5000×g and washed with a buffer containing 20 mM HEPES pH 7.4, 150 mM NaCl and re-suspended to an approximate OD700 of 1. The bacterial suspension (900 μl) was mixed with 100 μl of SAG or iSRCR1 (10 μM) or iSRCR123 ([…]) or commercially synthesized (Think Peptides, Inc) SRCRP2 peptide with fluorescein amidite (FAM) at the carboxyl end ([…]-[FAM]) (SEQ ID NO:9, at both 400 μg/ml and 1 mg/ml) in the presence of 6 mM CaCl2 and aggregation was measured by recording OD700over 60 min at 5 min intervals, where the buffer alone was used as control. All experiments were carried out at least five times, and the results were analyzed with One-way ANOVA. Post-hoc testing where *, P<0.05 was considered statistically significant and results were presented as the percentage of cells aggregated.
# [9] = tested on: S. mutans UA159; experiment: Aggregation assay (OD700 over 60 min); assay type: cell-based
# Description: as §4
# [10] = biological target: T4, AgI/II of S. mutans (Streptococcus mutans serotype c, UniProt P23504); experiment: ELISA binding of fluorescent tagged SRCRP2 peptide; settings: FAM-labelled peptide
# T4 construct: Recombinant full length (FL) constructs of surface proteins (homologs of AgI/II) AgI/II, SspB, Pas; made in house
# [11] = tested on: S. gordonii DL1; experiment: Flow cytometric analysis of iSRCR adherence to bacteria; assay type: cell-based; settings: 10 μM, compared with S. mutans
# Description: (§5) S. mutans UA159 and S. gordonii DL1 cells were grown overnight in TSY broth media at 37° C. and washed thoroughly with FACS buffer (20 mM HEPES pH 7.4, 150 mM NaCl and 5% non-fat dry milk) to reduce non-specific binding. Subsequently, 10 μM of iSRCR1 or iSRCR123 were added to 100 μl of cells (1×10^7 cells/ml) in binding buffer (FACS buffer+2.5 mM CaCl2) and incubated for 60 min at 37° C. The cells were later washed thoroughly with binding buffer to remove unbound iSRCRs. Subsequently, Anti-His tag Alexafluor 488 antibody (1:50 dilution) (EMD Millipore, Inc) that adheres to the His tag present on SRCRs was added to the cells and incubated for 30 min, washed three times and resuspended in 200 μl of binding buffer. Samples without iSRCRs served as control. Samples were then assayed using the FACScan machine (BD Biosciences) at the Analytical and Preparative Cytometry Facility (APCF) at UAB, and data obtained was analyzed using FlowJo 7.2.4 software.
# [12] = tested on: S. mutans UA159; experiment: as above; assay type: cell-based; settings: 10 μM
# Description: as §5
# [13] = Differential scanning calorimetry, thermostability of SRCRs with calcium; assay type: physicochemical; settings: no added CaCl2
# Description: The thermostability of SRCRs in the presence of calcium ions was analyzed using Microcal MC-II differential scanning calorimeter (GE HealthCare, USA) as described earlier. Briefly, iSRCR1 or iSRCR123 at concentration of 1 mg/ml was mixed and incubated with different concentration of CaCl2 ranging from (0-100 mM) to final volume of 400 μl of buffer containing 20 mM HEPES, 150 mM NaCl), and buffer without SRCRs served as control. Data were recorded with calorimetric scanning rates that ranged from 30° C./h to 90° C./hat 30 psi pressure. The data collected was analyzed for the unfolding temperature (Tt), and the calorimetric (ΔHcal) and van't Hoff (ΔHv) unfolding enthalpies using the Origin software package (MicroCal).
# [14] = tested on: S. mutans UA159; experiment: Confocal microscopy of iSRCR adherence to bacteria; assay type: cell-based; settings: 10 μM
# Description: S. mutans UA159 and S. gordonii DL1 were grown overnight in TSY (30 g/L of Trypticase soy broth and 0.5 g/L yeast extract, pH 7.2) media on an eight-well Lab Tek Chamber slide system (Sigma). The cells were fixed with 3% paraformaldehyde, washed with binding buffer (20 mM HEPES pH 7.4, 150 mM NaCl and 2.5 mM CaCl2), and thereafter iSRCR1 or iSRCR123 (10 μM) were added to the cells and incubated for 60 min. The unbound SRCRs were removed by repeated washing using the binding buffer. Subsequently, Alexa fluor 488 conjugated Anti-His-tag antibody (EMD Millipore, Inc) (1:50 dilution) that can bind to the His Tag on SRCRs was added. After 60 min incubation the unbound antibody was washed away thoroughly using binding buffer, and the chamber walls were gently removed. Cover slips were then mounted with 15 μl of fluoromount-G with DAPI (Southern Biotech Inc) to stain bacterial nuclei and were sealed until ready to be imaged. The experiment without SRCRs served as control. All slides were imaged using Leica SP1 UV Confocal Laser Scanning Microscope and Zeiss LSM 710 Confocal Laser Scanning Microscope at the UAB-High resolution imaging facility (UAB-HRIF).
# [15] = peptide at lower concentration (400 μg/ml)
# T4 sequence (P23504 39-1562): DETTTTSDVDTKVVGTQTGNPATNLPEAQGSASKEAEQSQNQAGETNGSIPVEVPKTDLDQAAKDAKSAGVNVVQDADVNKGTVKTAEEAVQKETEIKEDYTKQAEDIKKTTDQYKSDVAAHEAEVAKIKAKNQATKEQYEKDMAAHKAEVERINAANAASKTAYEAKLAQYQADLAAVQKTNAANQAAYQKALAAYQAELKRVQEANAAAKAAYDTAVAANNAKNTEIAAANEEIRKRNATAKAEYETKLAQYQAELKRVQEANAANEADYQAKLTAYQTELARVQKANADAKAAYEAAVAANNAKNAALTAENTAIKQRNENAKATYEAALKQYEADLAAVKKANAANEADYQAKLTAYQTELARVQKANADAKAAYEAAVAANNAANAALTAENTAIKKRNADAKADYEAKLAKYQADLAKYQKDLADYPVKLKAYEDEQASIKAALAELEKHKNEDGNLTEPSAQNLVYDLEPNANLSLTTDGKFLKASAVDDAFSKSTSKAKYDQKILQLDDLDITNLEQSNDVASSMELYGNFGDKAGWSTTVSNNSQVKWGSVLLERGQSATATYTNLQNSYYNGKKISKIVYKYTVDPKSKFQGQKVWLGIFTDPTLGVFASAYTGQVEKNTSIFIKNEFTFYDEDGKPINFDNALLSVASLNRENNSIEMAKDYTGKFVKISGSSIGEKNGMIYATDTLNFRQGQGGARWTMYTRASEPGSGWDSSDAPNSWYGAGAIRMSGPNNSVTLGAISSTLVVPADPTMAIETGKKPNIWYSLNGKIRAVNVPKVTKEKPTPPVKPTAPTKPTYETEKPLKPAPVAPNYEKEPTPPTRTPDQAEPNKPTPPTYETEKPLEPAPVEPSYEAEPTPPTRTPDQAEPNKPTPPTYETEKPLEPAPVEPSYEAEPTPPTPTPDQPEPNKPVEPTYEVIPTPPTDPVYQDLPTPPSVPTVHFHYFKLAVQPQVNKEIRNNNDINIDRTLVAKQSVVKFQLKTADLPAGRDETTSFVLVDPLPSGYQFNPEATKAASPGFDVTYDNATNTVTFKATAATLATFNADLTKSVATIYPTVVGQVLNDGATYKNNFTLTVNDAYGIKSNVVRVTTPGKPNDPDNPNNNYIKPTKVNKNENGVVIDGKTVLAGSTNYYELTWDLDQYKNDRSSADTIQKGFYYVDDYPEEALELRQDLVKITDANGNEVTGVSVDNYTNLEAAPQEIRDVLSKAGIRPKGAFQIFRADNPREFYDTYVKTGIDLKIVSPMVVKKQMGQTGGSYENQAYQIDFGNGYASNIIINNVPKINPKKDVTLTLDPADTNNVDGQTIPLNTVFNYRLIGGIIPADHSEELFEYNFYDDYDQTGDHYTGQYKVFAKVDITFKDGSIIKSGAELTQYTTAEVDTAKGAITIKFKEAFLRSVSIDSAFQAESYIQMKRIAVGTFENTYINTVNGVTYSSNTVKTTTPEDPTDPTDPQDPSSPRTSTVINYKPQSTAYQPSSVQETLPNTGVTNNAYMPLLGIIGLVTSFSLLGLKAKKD
# SspB of S. gordonii, sequence (A8AUS1 39-1433): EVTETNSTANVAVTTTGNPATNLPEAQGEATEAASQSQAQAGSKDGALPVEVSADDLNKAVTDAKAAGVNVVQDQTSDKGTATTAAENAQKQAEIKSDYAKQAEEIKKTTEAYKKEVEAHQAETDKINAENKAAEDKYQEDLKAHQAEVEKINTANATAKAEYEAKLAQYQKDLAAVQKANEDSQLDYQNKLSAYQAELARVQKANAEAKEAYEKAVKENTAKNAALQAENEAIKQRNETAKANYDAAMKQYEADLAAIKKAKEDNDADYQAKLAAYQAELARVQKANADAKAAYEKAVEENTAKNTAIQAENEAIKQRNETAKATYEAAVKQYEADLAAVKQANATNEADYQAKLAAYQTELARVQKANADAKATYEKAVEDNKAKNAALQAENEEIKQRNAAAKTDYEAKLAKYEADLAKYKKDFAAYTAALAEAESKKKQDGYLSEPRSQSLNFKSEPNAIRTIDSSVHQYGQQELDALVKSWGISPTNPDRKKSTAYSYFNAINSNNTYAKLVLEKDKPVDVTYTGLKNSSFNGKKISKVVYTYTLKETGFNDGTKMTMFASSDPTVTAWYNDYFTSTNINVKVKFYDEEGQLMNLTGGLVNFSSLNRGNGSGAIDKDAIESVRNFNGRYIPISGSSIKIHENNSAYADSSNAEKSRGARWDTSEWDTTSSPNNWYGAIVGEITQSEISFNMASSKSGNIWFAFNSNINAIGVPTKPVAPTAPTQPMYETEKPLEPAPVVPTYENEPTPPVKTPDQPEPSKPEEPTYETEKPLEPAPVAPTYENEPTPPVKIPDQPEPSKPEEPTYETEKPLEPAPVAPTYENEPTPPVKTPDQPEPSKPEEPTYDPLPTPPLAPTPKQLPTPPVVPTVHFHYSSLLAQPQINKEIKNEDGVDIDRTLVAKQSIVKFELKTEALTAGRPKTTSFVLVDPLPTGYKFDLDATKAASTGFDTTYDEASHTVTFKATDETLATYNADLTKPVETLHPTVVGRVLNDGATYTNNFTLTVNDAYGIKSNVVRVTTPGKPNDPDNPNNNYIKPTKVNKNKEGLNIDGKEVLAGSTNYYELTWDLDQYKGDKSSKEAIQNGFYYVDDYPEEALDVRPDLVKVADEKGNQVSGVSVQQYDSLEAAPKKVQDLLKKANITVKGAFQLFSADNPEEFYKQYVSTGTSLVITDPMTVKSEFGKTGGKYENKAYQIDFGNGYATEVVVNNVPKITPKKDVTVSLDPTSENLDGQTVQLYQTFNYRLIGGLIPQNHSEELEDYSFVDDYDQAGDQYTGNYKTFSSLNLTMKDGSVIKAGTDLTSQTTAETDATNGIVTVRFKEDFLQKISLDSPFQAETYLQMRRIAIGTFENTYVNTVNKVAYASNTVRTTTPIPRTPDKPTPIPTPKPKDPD
# T3 sequence (Q9UGM3 102-202 limits assumed): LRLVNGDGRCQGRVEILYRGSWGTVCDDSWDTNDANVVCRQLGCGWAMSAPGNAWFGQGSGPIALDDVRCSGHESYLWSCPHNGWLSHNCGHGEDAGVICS
# T1 sequence (Q9UGM3 102-463 limits assumed): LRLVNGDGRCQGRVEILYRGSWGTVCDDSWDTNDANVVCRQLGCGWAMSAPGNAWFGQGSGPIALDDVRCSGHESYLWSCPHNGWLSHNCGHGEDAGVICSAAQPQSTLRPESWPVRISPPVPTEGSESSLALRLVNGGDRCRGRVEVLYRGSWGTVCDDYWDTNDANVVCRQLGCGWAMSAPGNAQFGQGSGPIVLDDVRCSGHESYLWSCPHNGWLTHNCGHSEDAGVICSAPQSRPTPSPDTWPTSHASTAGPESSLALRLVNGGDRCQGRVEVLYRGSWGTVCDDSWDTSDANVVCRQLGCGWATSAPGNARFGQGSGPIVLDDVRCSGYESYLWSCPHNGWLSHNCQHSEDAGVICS
substance,measurement,setting,value
"QGRVEVLYRGSWGTVC [SRCRP2 peptide, reference compound]",adherence to SspB and its subfragments by ELISA (in words),[1],adheres well
same,change in adherence of C123^AgI/II to iSRCR1,[2],2.3%
same,improvement of adherence of A3VP1^AgI/II to iSRCR1,[2],13%
same,improvement of adherence of FL^AgI/II to iSRCR1,[2],8%
same,direct binding to immobilized iSRCR123 (in words),[3],did not show any binding
same,change in adherence of A3VP1^SspB to iSRCR1,[4],3%
same,change in adherence of C123^SspB to iSRCR1,[4],4%
same,improvement of adherence of FL^SspB to iSRCR1,[4],97%
same,direct binding to immobilized iSRCR1 (in words),[5],did not show any binding
same,change in adherence of C123^AgI/II to iSRCR123,[6],7%
same,improvement of adherence of A3VP1^AgI/II to iSRCR123,[6],16%
same,improvement of adherence of FL^AgI/II to iSRCR123,[6],8%
same,change in adherence of A3VP1^SspB to iSRCR123,[7],3%
same,change in adherence of C123^SspB to iSRCR123,[7],5%
same,improvement of adherence of FL^SspB to iSRCR123,[7],91%
same,percentage of cells aggregated,[8]; peptide 1 mg/ml,12%
same,percentage of cells aggregated,[8]; [15],11%
same,percentage of cells aggregated,[9]; peptide 1 mg/ml,18%
same,percentage of cells aggregated,[9]; [15],12%
same,adherence to AgI/II and its subfragments by ELISA (in words),[10],adheres well
"iSRCR1: recombinant single SRCR domain construct of Gp340 (15 kDa), Drosophila expression system",adherence by FACS (in words),[11],lower adherence
same,increase in fluorescence intensity compared to the control,[12],10 fold
same,Tm,[13],56.5 °C
same,percentage of cells aggregated,"[8]; iSRCR 10 μM or SAG, 6 mM CaCl2",13%
same,percentage of cells aggregated,"[9]; iSRCR 10 μM or SAG, 6 mM CaCl2",17%
same,binding to cells by confocal microscopy (in words),[14],binding
